The text below walks through data of paper PMC3042382, “The evolution of farnesoid X, vitamin D, and pregnane X receptors: insights from the green-spotted pufferfish (Tetraodon nigriviridis) and other non-mammalian species” (BMC Biochemistry, 2011).

For orientation: EC50 means the concentration needed to bring the measured effect to its halfway point. Low values mean an effect from little substance, high ones a need for much substance.

Assay [1] concerns the target T1, tnPXR (Tetraodon PXR, GAL4/LBD) (Tetraodon nigroviridis, UniProt H3D8U6).
T1 construct: cloned from liver RNA
T1 sequence (H3D8U6 123-404): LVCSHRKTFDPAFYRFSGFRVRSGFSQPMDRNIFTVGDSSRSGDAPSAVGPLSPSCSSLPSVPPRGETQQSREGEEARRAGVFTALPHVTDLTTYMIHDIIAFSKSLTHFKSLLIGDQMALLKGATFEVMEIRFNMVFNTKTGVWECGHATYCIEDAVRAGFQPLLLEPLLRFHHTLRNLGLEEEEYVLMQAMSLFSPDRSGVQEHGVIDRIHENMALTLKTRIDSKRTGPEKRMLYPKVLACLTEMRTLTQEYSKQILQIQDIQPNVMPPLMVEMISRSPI
Also noted: species or system HepG2-NTCP; GAL4/LBD chimera luciferase transactivation, normalised to beta-galactosidase, efficacy relative to maximal activator. The settings on record: agonist. The method, then: (§1) The creation of a HepG2 (human liver) cell line stably expressing the human Na^+-taurocholate cotransporter (NTCP; SLC10A1) has been previously reported. HepG2-NTCP cells were grown in modified Eagle's medium-α containing 10% fetal bovine serum and 1% penicillin/streptomycin. The cells were grown at 37°C in 5% CO2. The chicken LMH hepatoma cell line (ATCC, Manassus, VA, USA) was grown in Waymouth's MB 752/1 medium (ATCC) with 10 fetal bovine serum. The Xenopus laevis A6 kidney cell line (ATCC) was grown in 75% NCTC 109 medium, 15% distilled water, and 10% fetal bovine serum at 26°C in 2% CO2. Except as noted above, all media and media supplements for the HepG2 and A6 cell lines were obtained from Invitrogen (Carlsbad, CA, USA). Co-transfections and transactivations assays were performed as previously described. The maximal activators and their concentrations were as follows: chVDR, xlVDR, and tnVDR - 200 nM 1α,25-(OH)2-vitamin D3; tnFXR - 5 μM GW4064; tnPXR - 50 μM 5α-androstan-3α-ol. All comparisons to maximal activators were done within the same microplate. Luciferase data were normalized to the internal β-galactosidase control and represent means ± SD of the assays. The LBD of chicken VDR was cloned from RNA extracted from the LMH cell line. The LBD of Xenopus laevis VDR was cloned from RNA extracted from the A6 cell line. The LBDs of tnFXR, tnVDR, and tnPXR were cloned from total RNA extracted from Tetraodon liver using sequence information from the draft Tetraodon nigriviridis genome. The LBDs of chVDR (amino acid residues 113-451), xlVDR (amino acid residues 91-422), tnFXR (amino acid residues 180-463), tnVDR (amino acid residues 91-426), and tnPXR (amino acid residues 202-483) were inserted into the pM2-GAL4 vector to create GAL4/LBD chimeras.

Assay [2] deals with T1, tnPXR (Tetraodon PXR, GAL4/LBD). Briefly: cell-based. Also noted: GAL4/LBD chimera luciferase transactivation, normalised to beta-galactosidase, efficacy relative to maximal activator. The settings on record: HepG2-NTCP; relative to 50 uM 5α-androstan-3α-ol; read-out: Efficacy. On the procedure: as §1
Assay [3] addresses T2, tnVDR (Tetraodon VDR alpha, GAL4/LBD) (Tetraodon nigroviridis, UniProt A0A0A1CGS5).
T2 construct: gene VDRa; cloned from liver RNA
T2 sequence (A0A0A1CGS5 91-420): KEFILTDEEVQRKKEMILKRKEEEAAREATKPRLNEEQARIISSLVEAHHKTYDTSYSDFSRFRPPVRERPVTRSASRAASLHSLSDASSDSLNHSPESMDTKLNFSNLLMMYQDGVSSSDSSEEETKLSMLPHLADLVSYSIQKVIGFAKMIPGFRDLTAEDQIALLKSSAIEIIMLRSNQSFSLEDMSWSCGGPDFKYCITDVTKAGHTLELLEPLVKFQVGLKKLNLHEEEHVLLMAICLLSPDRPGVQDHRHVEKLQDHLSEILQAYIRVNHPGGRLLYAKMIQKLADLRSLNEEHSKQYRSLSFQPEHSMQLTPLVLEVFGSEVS
Nature of the assay: cell-based. Also noted: GAL4/LBD chimera luciferase transactivation, normalised to beta-galactosidase, efficacy relative to maximal activator. As to conditions: HepG2-NTCP; relative to 200 nM 1α,25-(OH)2-vitamin D3; read-out: Efficacy. The method, then: as §1

In assay [4] the target is T3, tnPXR (Tetraodon PXR, GAL4/LBD) (Tetraodon nigroviridis, UniProt H3D8U6).
T3 construct: cloned from liver RNA
Nature of the assay: GAL4/LBD luciferase transactivation. The class given is cell-based. The settings on record: agonist, HepG2-NTCP cells.

In assay [5] the test system is T4, tnFXR (Tetraodon FXR, GAL4/LBD).
T4 construct: gene NR1H4; cloned from liver RNA
Briefly: GAL4/LBD luciferase transactivation. The settings on record: agonist, HepG2-NTCP cells. The class given is cell-based, Tetraodon nigroviridis.

Assay [6] has as its target T5, chVDR (chicken VDR, GAL4/LBD) (Gallus gallus, UniProt O42392).
T5 sequence (O42392 113-451): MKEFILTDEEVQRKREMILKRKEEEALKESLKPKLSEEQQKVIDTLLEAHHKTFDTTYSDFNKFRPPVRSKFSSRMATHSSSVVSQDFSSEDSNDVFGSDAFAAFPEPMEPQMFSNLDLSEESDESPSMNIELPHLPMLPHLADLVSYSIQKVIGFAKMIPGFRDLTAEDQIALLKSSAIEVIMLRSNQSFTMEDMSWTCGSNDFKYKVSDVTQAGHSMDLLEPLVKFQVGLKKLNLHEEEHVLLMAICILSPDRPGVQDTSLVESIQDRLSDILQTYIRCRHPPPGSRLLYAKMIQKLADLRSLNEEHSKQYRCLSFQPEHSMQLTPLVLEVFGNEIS
Briefly: cell-based.

The mark [7] stands for this setting: reference maximal activator ([…]).

SMILES strings stand for the structures. Like-named read-outs stand apart in the source and are kept apart here.

In assay [1], `C[C@H](CCC(=O)O)[C@H]1CC[C@H]2[C@@H]3CC[C@@H]4CC(=O)CC[C@]4(C)[C@H]3CC[C@]12C` [3_Keto_LCA] showed an EC50 of 42.3 µM. For the same compound, the Emax in assay [2] came out at 65%; in assay [3], 17%.

Take `C[C@]12CC[C@@H](O)C[C@@H]1CC[C@@H]1[C@@H]2CC[C@]2(C)C=CC[C@@H]12` [5α-Androst-16-en-3α-ol]: in assay [1], the EC50 was 7.4 µM. Also, in assay [2], the Emax was 58%.

As to `C[C@H](CCC(=O)O)[C@H]1CC[C@H]2[C@@H]3CC[C@H]4CCCC[C@]4(C)[C@H]3CC[C@]12C` [5α-Cholan-24-oic acid], the Emax in assay [3] was 3%.

Take `C[C@H](CCCC(CO)COS(=O)(=O)O)[C@H]1CC[C@H]2[C@@H]3[C@H](O)C[C@H]4C[C@H](O)CC[C@]4(C)[C@H]3C[C@H](O)[C@]12C` (stereo partly drawn) [5α-Cyprinol-27-sulfate]: the midpoint of the response in assay [1], the EC50, lay at 8.2 µM.

For `C[C@@]12CCC[C@H]1[C@@H]1CC[C@H]3C[C@H](O)CC[C@]3(C)[C@H]1CC2` [5α-androstan-3α-ol], it took 6.1 ± 0.7 µM to reach a half-maximal effect in assay [4] (setting [7]) (EC50).

In the case of `CC(=O)[C@H]1CC[C@H]2[C@@H]3CC[C@@H]4CC(=O)CC[C@]4(C)[C@H]3CC[C@]12C` [5β-Pregnanedione], in assay [2], the Emax was 73%.

The compound `CC(=O)[C@H]1CC[C@H]2[C@@H]3CC[C@@H]4CC(=O)CC[C@]4(C)[C@H]3CC[C@]12C` [5β-pregnane-3,20-dione] came in with an EC50 in assay [4] of 4 µM.

Regarding `C=C1CC[C@H](O)C/C1=C/C=C1\CCC[C@]2(C)[C@@H]([C@H](C)CCCC(C)(C)O)CC[C@@H]12` [25-Hydroxyvitamin D3], in assay [3], the Emax was found to be 110%.

Take `C[C@H](CCC(=O)O)[C@H]1CC[C@H]2[C@@H]3[C@H](O)C[C@@H]4C[C@H](O)CC[C@]4(C)[C@H]3CC[C@]12C` [CDCA, 3α,7α-dihydroxy-5β-cholan-24-oic acid]: the EC50 in assay [1] stood at 15.6 µM. The Emax in assay [2] turned out to be 38%.

In assay [1], `C[C@]12CCC(=O)C=C1CC[C@@H]1[C@@H]2C(=O)C[C@@]2(C)[C@H]1CC[C@]2(O)C(=O)CO` [Cortisone] yielded an EC50 of 12.2 µM. In addition, in assay [2], the Emax worked out at 19%.

`C[C@]12CC[C@H](OS(=O)(=O)O)CC1=CC[C@@H]1[C@@H]2CC[C@]2(C)C(=O)CC[C@@H]12` [DHEA_sulfate] registered an EC50 in assay [1] of 8.5 µM. In addition, the Emax in assay [2] was 70%.

The compound `C[C@H](CCC(=O)O)[C@H]1CC[C@H]2[C@@H]3CC[C@@H]4C[C@H](O)CC[C@]4(C)[C@H]3C[C@H](O)[C@]12C` [Deoxycholic acid] displayed an EC50 in assay [1] of 9 µM. The Emax in assay [2] was 33%.

As for `C[C@]12CC[C@@H]3c4ccc(O)cc4CC[C@H]3[C@@H]1CC[C@@H]2O` [Estradiol], the half-maximal effective concentration (EC50) in assay [1] came out at 9.6 µM. For the same compound, the Emax in assay [2] was found to be 47%.

In turn, `CC(C)c1onc(-c2c(Cl)cccc2Cl)c1COc1ccc(/C=C/c2cccc(C(=O)O)c2)c(Cl)c1` [GW4064] had an EC50 in assay [5] (setting [7]) of 2.8 ± 0.8 µM.

As to `C[C@H](CCC(=O)O)[C@H]1CC[C@H]2[C@@H]3CC[C@@H]4C[C@@H](O)CC[C@]4(C)[C@H]3CC[C@]12C` [Iso-LCA], the Emax in assay [3] amounted to 4%.

Consider `CC(=O)O[C@@H]1CC[C@@]2(C)[C@H](CC[C@@H]3[C@@H]2CC[C@]2(C)[C@@H]([C@H](C)CCC(=O)O)CC[C@@H]32)C1` [LCA acetate], for which, in assay [3], the Emax was 61%.

Take `C[C@H](CCC(=O)O)[C@H]1CC[C@H]2[C@@H]3CC[C@@H]4C[C@H](O)CC[C@]4(C)[C@H]3CC[C@]12C` [LCA, 3α-hydroxy-5β-cholan-24-oic acid]: the values for the EC50 in assay [5], in assay [1] and in assay [6] were 20.8 ± 1 µM, 81 µM and 50.3 ± 7.4 µM, respectively. For the same compound, the Emax in assay [2] is 10%; in assay [3], 12%.

As for `CC(=O)[C@H]1CC[C@H]2[C@@H]3CC=C4C[C@@H](O)CC[C@]4(C)[C@H]3CC[C@]12C` [Pregnenolone], the EC50 in assay [1] came to 3.3 µM. The Emax in assay [2] came to 34%.

Regarding `CC(=O)[C@H]1CC[C@H]2[C@@H]3CCC4=CC(=O)CC[C@]4(C)[C@H]3CC[C@]12C` [Progesterone], the EC50 in assay [1] was 8.9 µM. Also, in assay [2], the Emax turned out to be 33%.

As for `O=S(=O)(c1ccccc1)N(CC(F)(F)F)c1ccc(C(O)(C(F)(F)F)C(F)(F)F)cc1` [T-0901317], in assay [1], the concentration for a half-maximal effect (EC50) amounted to 7.7 µM. Besides, the Emax in assay [2] came to 17%.

As for `C[C@H](CCC(=O)NCCS(=O)(=O)O)[C@H]1CC[C@H]2[C@@H]3[C@H](O)C[C@@H]4C[C@H](O)CC[C@]4(C)[C@H]3CC[C@]12C` [TCDCA, taurochenodeoxycholic acid], the EC50 in assay [4] worked out at 4.8 ± 0.3 µM. Moreover, in assay [2], the Emax is 59%.

As to `C[C@H](CCC(=O)NCCS(=O)(=O)O)[C@H]1CC[C@H]2[C@@H]3CC[C@@H]4C[C@H](O)CC[C@]4(C)[C@H]3CC[C@]12C` [Tauro-LCA], the 50% effective concentration (EC50) in assay [1] was found to be 19.1 µM. Further, the Emax in assay [2] was determined as 29%.

Take `CCCCOC(=O)c1ccc(N)cc1` [n-butyl 4-amino benzoate]: in assay [4], the response was half-maximal at 25.6 ± 1.4 µM (EC50). In addition, in assay [2], the Emax was 88%.
